Assay results as given in US10314841B2, “Substituted pyrazoles as IRAK inhibitors” (Merck Patent GmbH, priority 2014, dated 2019).
pIC50: −log10 of the molar value.

Columns and labels:
[1] = molecular target: T1, IRAK1 (His-TEV-IRAK1 (194-712)) (Homo sapiens, UniProt P51617); experiment: IRAK1 enzymatic assay; assay type: biochemical; conditions: human recombinant His-TEV-IRAK1, ATP 1 μM, 3 hours at 30° C., FlashPlate
T1 construct: His-TEV-IRAK1 (194-712); His (N); TEV cleavage site (N)
Method: IRAK1 Enzymatic Assay IRAK1 is a human purified recombinant enzyme (His-TEV-IRAK1 (194-712)). In this assay, IRAK-1 hydrolyses ATP and autophosphorylates. Measurement of IRAK-1 inhibition was performed in streptavidin coated 384 well FlashPlate (PerkinElmer #SM[…]). His-TEV-IRAK-1 (15 ng/well), ATP (1 μ[…]]ATP 0.25 μCi/well) and compounds in DMSO (range of concentrations from 20 μM to 1 nM) or controls (2% DMSO) were incubated for 3 hours at 30° C. in assay buffer: Hepes pH7.0 50 mM, Fatty acid-free BSA 0.1%, Dithiothreitol DTT 2 mM, MgCl2 10 mM, EGTA 0.5 mM, Triton-X-100 0.01%. Kinase reaction was stopped by addition of EDTA. Supernatant was discarded, plates were washed three times with 150 mM NaCl and radioactivity was then measured in a Microbeta Trilux reader.

IRAK4 (His-TEV-IRAK4) = molecular target: T2, IRAK4 (His-TEV-IRAK4) (Homo sapiens, UniProt Q9NWZ3); experiment: IRAK4 enzymatic assay; assay type: biochemical; conditions: human recombinant His-TEV-IRAK4, ATP 2 μM, STK1-biotin peptide 300 nM, 3 hours at 30° C., FlashPlate
T2 construct: His (N); TEV cleavage site (N)
T2 sequence (Q9NWZ3 1-460): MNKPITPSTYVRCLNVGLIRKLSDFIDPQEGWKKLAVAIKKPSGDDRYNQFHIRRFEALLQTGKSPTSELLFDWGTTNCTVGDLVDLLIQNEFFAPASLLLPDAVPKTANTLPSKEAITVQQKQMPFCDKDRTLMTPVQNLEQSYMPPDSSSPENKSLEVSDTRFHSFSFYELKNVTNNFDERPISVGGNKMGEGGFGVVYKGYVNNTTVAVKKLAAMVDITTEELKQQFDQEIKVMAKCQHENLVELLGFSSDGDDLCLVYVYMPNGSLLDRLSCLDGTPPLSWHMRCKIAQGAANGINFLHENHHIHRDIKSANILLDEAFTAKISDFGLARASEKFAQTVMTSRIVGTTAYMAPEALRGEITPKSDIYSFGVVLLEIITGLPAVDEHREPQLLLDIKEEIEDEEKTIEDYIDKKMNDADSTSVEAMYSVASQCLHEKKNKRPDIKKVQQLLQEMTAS
Method: IRAK4 Enzymatic Assay IRAK4 is a human purified recombinant enzyme (His-TEV-[…] (194-712). IRAK4 hydrolyses ATP, autophosphorylates and phosphorylates a Serine/Threonine generic peptidic substrate (STK: 61 ST1BLC from CisBio International based in Bagnols/Cèze FR). Measurement of IRAK-4 inhibition was performed in streptavidin coated 384 well FlashPlate (PerkinElmer #SM[…]). His-TEV-IRAK4 (20 ng/well), ATP (2 μM, [^33P]ATP 0.25 μCi/well), STK1-biotin peptide (300 nM) and compounds in DMSO (range of concentrations from 20 μM to 1 nM) or controls (2% DMSO) were incubated for 3 hours at 30° C. in assay buffer: Hepes pH7.0 50 mM, Fatty acid-free BSA 0.1%, Dithiothreitol DTT 2 mM, MgCl2 10 mM, EGTA 0.5 mM, Tween-20 0.01%, MnCl2 5 mM. Kinase reaction was stopped by addition of EDTA. Supernatant was discarded, plates were washed three times with 150 mM NaCl and radioactivity was then measured in a Microbeta Trilux reader.

T1 sequence (P51617 194-712): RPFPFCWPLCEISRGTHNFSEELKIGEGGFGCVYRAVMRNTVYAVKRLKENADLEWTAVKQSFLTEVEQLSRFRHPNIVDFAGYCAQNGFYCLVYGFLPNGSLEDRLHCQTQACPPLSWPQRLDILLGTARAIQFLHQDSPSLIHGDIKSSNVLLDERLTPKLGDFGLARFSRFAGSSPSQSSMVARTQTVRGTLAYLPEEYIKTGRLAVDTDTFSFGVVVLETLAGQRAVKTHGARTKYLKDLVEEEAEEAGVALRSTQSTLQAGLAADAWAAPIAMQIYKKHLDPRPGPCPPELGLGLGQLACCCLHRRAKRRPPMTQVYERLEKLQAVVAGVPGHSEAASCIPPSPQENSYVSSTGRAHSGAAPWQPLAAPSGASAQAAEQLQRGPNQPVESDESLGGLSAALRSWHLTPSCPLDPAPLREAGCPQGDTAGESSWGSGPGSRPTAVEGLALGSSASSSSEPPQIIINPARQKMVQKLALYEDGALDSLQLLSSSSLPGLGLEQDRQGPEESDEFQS

pIC50 [1]	pIC50 (IRAK4 (His-TEV-IRAK4))	SMILES
6.00 to 7.00	> 7.00	CC(=O)N1CCC(n2cc(-c3cnc(-c4cccc(-c5cnn(C)c5)c4)nc3)cn2)C(CO)C1 (mixture of isomers) [Compound 22, 1-[3-Hydroxymethyl-4-(4-{2-[3-(1-methyl-1H-pyrazol-4-yl)-phenyl]-pyrimidin-5-yl}-pyrazol-1-yl)-piperidin-1-yl]-ethanone]
6.00 to 7.00	6.00 to 7.00	Cn1cc(-c2cccc(-c3ncc(-c4cnn([C@H]5CCC[C@H](N6CCOCC6)C5)c4)cn3)c2)cn1 (relative stereo) [Compound 5, 4-[Trans-3-(4-{2-[3-(1-Methyl-1H-pyrazol-4-yl)-phenyl]-pyrimidin-5-yl}-pyrazol-1-yl)-cyclohexyl]-morpholine]
6.00 to 7.00	> 7.00	Cn1cc(-c2cccc(-c3ncc(-c4cnn(C5CCCC(O)(CO)C5)c4)cn3)c2)cn1 (stereo not shown) [Compound 1, 1-Hydroxymethyl-3-(4-{2-[3-(1-methyl-1H-pyrazol-4-yl)-phenyl]-pyrimidin-5-yl}-pyrazol-1-yl)-cyclohexanol]
6.00 to 7.00	6.00 to 7.00	Cn1cc(-c2cccc(-c3ncc(-c4cnn(CCNC(=O)OC(C)(C)C)c4)cn3)c2)cn1 [Compound 6, [2-(4-{2-[3-(1-Methyl-1H-pyrazol-4-yl)-phenyl]-pyrimidin-5-yl}-pyrazol-1-yl)-ethyl]-carbamic acid tert-butyl ester]
6.00 to 7.00	6.00 to 7.00	Cn1cc(-c2cccc(-c3ncc(-c4cnn(C5CCCN(C(=O)OC(C)(C)C)C5)c4)cn3)c2)cn1 (stereo not shown) [Compound 7, 3-(4-{2-[3-(1-Methyl-1H-pyrazol-4-yl)-phenyl]-pyrimidin-5-yl}-pyrazol-1-yl)-piperidine-1-carboxylic acid tert-butyl ester]
6.00 to 7.00	6.00 to 7.00	Cn1cc(-c2cccc(-c3ncc(-c4cnn(C5CCN(C(=O)OC(C)(C)C)CC5)c4)cn3)c2)cn1 [Compound 8, 4-(4-{2-[3-(1-Methyl-1H-pyrazol-4-yl)-phenyl]-pyrimidin-5-yl}-pyrazol-1-yl)-piperidine-1-carboxylic acid tert-butyl ester]
6.00 to 7.00	6.00 to 7.00	C=CC(=O)NCCn1cc(-c2cnc(-c3cccc(-c4cnn(C)c4)c3)nc2)cn1 [Compound 13, N-[2-(4-{2-[3-(1-Methyl-1H-pyrazol-4-yl)-phenyl]-pyrimidin-5-yl}-pyrazol-1-yl)-ethyl]-acrylamide]
6.00 to 7.00	6.00 to 7.00	C=CS(=O)(=O)NCCn1cc(-c2cnc(-c3cccc(-c4cnn(C)c4)c3)nc2)cn1 [Compound 16, Ethenesulfonic acid [2-(4-{2-[3-(1-methyl-1H-pyrazol-4-yl)-phenyl]-pyrimidin-5-yl}-pyrazol-1-yl)-ethyl]-amide]
6.00 to 7.00	> 7.00	Cn1cc(-c2cccc(-c3ncc(-c4cnn(C5CCCNC(=O)C5)c4)cn3)c2)cn1 (stereo not shown) [Compound 23, 4-(4-{2-[3-(1-Methyl-1H-pyrazol-4-yl)-phenyl]-pyrimidin-5-yl}-pyrazol-1-yl)-azepan-2-one]
6.00 to 7.00	> 7.00	CN1CCCC(n2cc(-c3cnc(-c4cccc(-c5cnn(C)c5)c4)nc3)cn2)CC1=O (stereo not shown) [Compound 24, 1-Methyl-4-(4-{2-[3-(1-methyl-1H-pyrazol-4-yl)-phenyl]-pyrimidin-5-yl}-pyrazol-1-yl)-azepan-2-one]
6.00 to 7.00	> 7.00	Cn1cc(-c2cccc(-c3ncc(-c4cnn(C5CCCC(N6CCCC(F)(F)C6)C5)c4)cn3)c2)cn1 (stereo not shown) [Compound 25, 5-{1-[3-(3,3-Difluoro-piperidin-1-yl)-cyclohexyl]-1H-pyrazol-4-yl}-2-[3-(1-methyl-1H-pyrazol-4-yl)-phenyl]-pyrimidine]
4.70 to 6.00	6.00 to 7.00	COCC1CNCCC1n1cc(-c2cnc(-c3cccc(-c4cnn(C)c4)c3)nc2)cn1 (stereo not shown) [Compound 29, 5-[1-(3-Methoxymethyl-piperidin-4-yl)-1H-pyrazol-4-yl]-2-[3-(1-methyl-1H-pyrazol-4-yl)-phenyl]-pyrimidine]
4.70 to 6.00	6.00 to 7.00	O[C@H]1CC[C@H](n2cc(-c3cnc(-c4cccc(-c5cnn(CCN6CCOCC6)c5)c4)nc3)cn2)CC1 [Compound 30, (1r,4r)-4-[4-(2-{3-[1-(2-Morpholin-4-yl-ethyl)-1H-pyrazol-4-yl]-phenyl}-pyrimidin-5-yl)-pyrazol-1-yl]-cyclohexanol]
6.00 to 7.00	> 7.00	Cn1cc(-c2cccc(-c3ncc(-c4cnn([C@H]5CC[C@]6(CCC(=O)N6CCO)CC5)c4)cn3)c2)cn1 [Compound 31, 1-(2-Hydroxy-ethyl)-8-(4-{2-[3-(1-methyl-1H-pyrazol-4-yl)-phenyl]-pyrimidin-5-yl}-pyrazol-1-yl)-1-aza-spiro[4.5]decan-2-one]
4.70 to 6.00	6.00 to 7.00	O[C@H]1CC[C@H](n2cc(-c3cnc(-c4cccc(-c5cnn(C6CCNCC6)c5)c4)nc3)cn2)CC1 [Compound 32, 4-(4-{2-[3-(1-Piperidin-4-yl-1H-pyrazol-4-yl)-phenyl]-pyrimidin-5-yl}-pyrazol-1-yl)-cyclohexanol]
6.00 to 7.00	6.00 to 7.00	CC1COCCC1N1CCC[C@H](n2cc(-c3cnc(-c4cccc(-c5cnn(C)c5)c4)nc3)cn2)C1 (stereo partly drawn) [Compound 39, 2-[3-(1-Methyl-1H-pyrazol-4-yl)-phenyl]-5-{1-[(S)-1-(3-methyl-tetrahydro-pyran-4-yl)-piperidin-3-yl]-1H-pyrazol-4-yl}-pyrimidine]
6.00 to 7.00	6.00 to 7.00	CC1COCCC1N1CCC[C@@H](n2cc(-c3cnc(-c4cccc(-c5cnn(C)c5)c4)nc3)cn2)C1 (stereo partly drawn) [Compound 40, 2-[3-(1-Methyl-1H-pyrazol-4-yl)-phenyl]-5-{1-[(R)-1-(3-methyl-tetrahydro-pyran-4-yl)-piperidin-3-yl]-1H-pyrazol-4-yl}-pyrimidine]
4.70 to 6.00	6.00 to 7.00	Cn1cc(-c2cccc(-c3ncc(-c4cnn(C5CCC(C(=O)O)C5)c4)cn3)c2)cn1 (stereo not shown) [Compound 42, 3-(4-{2-[3-(1-Methyl-1H-pyrazol-4-yl)-phenyl]-pyrimidin-5-yl}-pyrazol-1-yl)-cyclopentanecarboxylic acid]
–	> 7.00	Cn1ccc(-c2cccc(-c3ncc(-c4cnn([C@H]5CC[C@]6(CCC(=O)N6C)CC5)c4)cn3)c2)n1 [Compound 44, 1-Methyl-8-(4-{2-[3-(1-methyl-1H-pyrazol-3-yl)-phenyl]-pyrimidin-5-yl}-pyrazol-1-yl)-1-aza-spiro[4.5]decan-2-one]
6.00 to 7.00	6.00 to 7.00	CN(C)C/C=C/C(=O)N1CCC(n2cc(-c3cnc(-c4cccc(-c5cnn(C)c5)c4)nc3)cn2)CC1 [Compound 47, (E)-4-Dimethylamino-1-[4-(4-{2-[3-(1-methyl-1H-pyrazol-4-yl)-phenyl]-pyrimidin-5-yl}-pyrazol-1-yl)-piperidin-1-yl]-but-2-en-1-one]

SMILES	pIC50 [1]	pIC50 (IRAK4 (His-TEV-IRAK4))
Cn1cc(-c2cccc(-c3ncc(-c4cnn([C@H]5C[C@@H]6CC[C@@H](N6)C5F)c4)cn3)c2)cn1 (stereo partly shown) [Compound 19, 2-Fluoro-3-(4-{2-[3-(1-methyl-1H-pyrazol-4-yl)-phenyl]-pyrimidin-5-yl}-pyrazol-1-yl)-8-aza-bicyclo[3.2.1]octane]	> 7.00	> 7.00
CN1[C@H]2CC[C@@H]1C(F)[C@@H](n1cc(-c3cnc(-c4cccc(-c5cnn(C)c5)c4)nc3)cn1)C2 (stereo partly shown) [Compound 20, 2-Fluoro-8-methyl-3-(4-{2-[3-(1-methyl-1H-pyrazol-4-yl)-phenyl]-pyrimidin-5-yl}-pyrazol-1-yl)-8-aza-bicyclo[3.2.1]octane]	6.00 to 7.00	6.00 to 7.00
